Assay [1] concerns the target T1, human monofunctional GARFT (Homo sapiens, UniProt P22102).
T1 construct: human monofunctional GARFT
T1 sequence (P22102 810-1010 limits assumed): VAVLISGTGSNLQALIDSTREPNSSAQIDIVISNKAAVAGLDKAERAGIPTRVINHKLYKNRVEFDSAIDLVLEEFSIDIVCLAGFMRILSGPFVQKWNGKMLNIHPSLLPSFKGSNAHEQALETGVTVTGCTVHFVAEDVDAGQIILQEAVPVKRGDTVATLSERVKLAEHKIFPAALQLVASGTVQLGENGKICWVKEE
Description: Ki against human monofunctional GARFT. It is filed as biochemical. Conditions: tight-binding analysis per Henderson; read-out: Ki inhibition constant against human monofunctional GARFT.

A further assay relates to CCRF-CEM cell line. The experiment in a line: CCRF-CEM cell growth inhibition. It counts as cell-based. Conditions: Homo sapiens, read-out: IC50, concentration inhibiting cell growth of a CCRF-CEM cell line by 50% as compared to control. The method, then: For N-(N-{5-[2-(2-amino-4-hydroxy-5,6,7,8-tetrahydropyrido[2,3-d]pyrimidin-6-yl)-ethyl]thien-2-ylcarbonyl}-L-γ-glutamyl)-D-aspartic acid, the IC50 is 0.100 μg/mL. For N-(N-{5-[2-(2-amino-4-hydroxy-5,6,7,8-tetrahydropyrido[2,3-d]pyrimidin-6-yl)ethyl]thien-2-ylcarbonyl}-L-γ-glutamyl)-D-glutamic acid 1-tert.-butyl-2,2-diethyl ester, the IC50 is 1.0 μg/mL. For N-{5-[2-(2-amino-4-hydroxy-5,6,7,8-tetrahydropyrido[2,3-d]pyrimidin-6-yl)- ethyl]thien-2-ylcarbonyl}-L-homocysteic acid α-methyl ester, the IC50 is 0.200 μg/mL. […] For 2-{5-[2-(2-amino-4-hydroxy-5,6,7,8-tetrahydropyrido[2,3-d]pyrimidin-6-yl)ethyl]thien-2-ylcarbonylamino}-3-(2H-tetrazol-5-yl)propanoic acid diammonium salt the IC50 is >100 μg/mL.

In assay [2] the test system is 6C3HED lymphosarcoma tumor. The experiment in a line: 6C3HED lymphosarcoma tumor growth inhibition in C3H female mice. It counts as in vivo. The settings on record: daily IV bolus injection for 8 days. The method, then:
N-(N-{5-[2-(2-amino-4-hydroxy-5,6,7,8-tetrahydropyrido[2,3 -d]pyrimidin-6-yl)ethyl]thien-2-ylcarbonyl}-L-γ-glutamyl)-D-asparticacid was evaluated against 6C3HED lymphosarcoma tumor in C3H female mice with the compound given daily, IV bolus injection, for 8 days. Compounds were administered in units of mg/kg of body weight. At the end of treatment, tumor weight was estimated using an electronic caliper interfaced to a microcomputer, and average tumor weight was calculated for each dosing level and a control group. Percentage inhibition of tumor growth was calculated as % inhibition of tumor growth according to the expression:
[1-(average tumor weight experimental group/average tumor weight control
Percentage inhibition was not calculated at a particular dosing level if mortality exceeded 20%. Cumulative dose was calculated by multiplying the daily dose by the number of days doses were administered.

Converted amounts (≈) assume the structure as drawn. Structures can show the parent of a compound that is named as a salt. Some results are limits rather than exact numbers.

A word on the Ki: it is a measure of affinity in units of concentration, obtained from inhibition or displacement.

For the molecule `Nc1nc(O)c2c(n1)NCC(CCc1ccc(C(=O)NC(Cc3nn[nH]n3)C(=O)O)s1)C2` (stereo not shown) [Example 13], the Ki in assay [1] was 156 nM. In addition, in the assay on CCRF-CEM cell line, the IC50 was above 100 µg/mL.

With `Nc1nc(O)c2c(n1)NCC(CCc1ccc(C(=O)N[C@@H](CCC(=O)N[C@H](CC(=O)O)C(=O)O)C(=O)O)cc1)C2` (stereo partly drawn) [Example 1, N-(N-{4-[2-(2-Amino-4-hydroxy-5,6,7,8-tetrahydropyrido[2,3-d]pyrimidin-6-yl)ethyl]benzoyl}-L-γ-glutamyl)-D-aspartic Acid], the IC50 in the assay on CCRF-CEM cell line was determined as 1.6 µg/mL (≈ 2.86 µM).

In the case of `Nc1nc(O)c2c(n1)NCC(CCc1ccc(C(=O)N[C@@H](Cc3nn[nH]n3)C(=O)O)cc1)C2` (stereo partly shown) [Example 12, 2-{4-[2-(2-Amino-4-hydroxy-5,6,7,8-tetrahydropyrido[2.3-d]pyrimidin-6-yl)ethyl]benzoylamino}-3-(2H-tetrazol-5-yl)propanoic Acid Diammonium Salt], the IC50 with CCRF-CEM cell line is 28.6 µg/mL.

Consider `Nc1nc(O)c2c(n1)NCC(CCc1ccc(C(=O)N[C@@H](CCC(=O)N[C@H](CC(=O)O)C(=O)O)C(=O)O)s1)C2` (stereo partly shown) [Example 2], for which, in assay [1], the inhibition constant (Ki) stood at 0.244 nM. In addition, the IC50 in the assay with CCRF-CEM cell line worked out at 0.1 µg/mL (≈ 0.177 µM). Also, the “% inhibition of tumor growth” value in assay [2] (100 mg/kg) and in assay [2] (200 mg/kg) was 100% in each case.

`COC(=O)[C@H](CCS(=O)(=O)O)NC(=O)c1ccc(CCC2CNc3nc(N)nc(O)c3C2)s1` (stereo partly shown) [Example 8]: the Ki in assay [1] was found to be 3.5 nM. In addition, the IC50 in the assay with CCRF-CEM cell line worked out at 0.2 µg/mL (≈ 0.4 µM).

For `CCOC(=O)CC[C@@H](NC(=O)CC[C@H](NC(=O)c1ccc(CCC2CNc3nc(N)nc(O)c3C2)s1)C(=O)OC(C)(C)C)C(=O)OCC` (stereo partly drawn) [N-(N-{5-[2-(2-amino-4-hydroxy-5,6,7,8-tetrahydropyrido[2,3-d]pyrimidin-6-yl)ethyl]thien-2-ylcarbonyl}-L-γ-glutamyl)-D-glutamic acid 1-tert.-butyl-2,2-diethyl ester], the Ki in assay [1] came out at 7.7 nM. For the same molecule, the IC50 in the assay on CCRF-CEM cell line stood at 1 µg/mL (≈ 1.45 µM).

As for `Nc1nc(O)c2c(n1)NCC(CCc1ccc(C(=O)N[C@@H](CCS(=O)(=O)O)C(=O)O)s1)C2` (stereo partly drawn) [Example 9, N-{5-[2-(2-Amino-4-hydroxy-5,6,7,8-tetrahydropyrido[2.3-d]pyrimidin-6-yl)-ethyl]thien-2-ylcarbonyl}-L-homocysteic Acid], the IC50 with CCRF-CEM cell line came to 0.82 µg/mL (≈ 1.69 µM).

(Values after patent US5786358A, “Pyridopyrimidines as nonclassical antifolates” (The Trustees of Princeton University, priority 1996, dated 1998).)
